The text below walks through data of the supplement of paper PMC11208160.

The nature of this data set: recombinant barcode read abundance after kanamycin selection (control-corrected) (log10(CPM+1)); higher = more efficient recombination; sequences stand for … in AGTGCAGAGAAAATCGGCCAGTTTTCTCTGCCTGCAGTCCGCATGCCGT…AGATTTATGCAGCGGACTGCCTTTCTCCCAAAGTGATAAACCGGACAGTATCATGGACCGGTTTTCCCGGTAATCCGTATTTGCAAGGTTGGTTTCACT; site = the 11-nt target. An outline of the steps:
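In a pooled screen in E. coli, targets were paired with target-binding loops of the IS621 bridge RNA. Each oligo carried a promoter, a target, a barcode and the first 104 bridge RNA bases driven by J23119, and was Gibson-cloned into a vector holding the remaining 73 bp and a T7-inducible recombinase before co-electroporation with a donor plasmid. Duplicate platings went onto chloramphenicol/ampicillin LB agar as the control or onto chloramphenicol/ampicillin/kanamycin with 0.1 mM IPTG. Recombination efficiency is the averaged, control-corrected count per million of barcodes at recombinant junctions, given as log10(CPM+1).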
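Also: IS621 recombinase and bridge RNA in Escherichia coli cells.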

With “TGGTACGCTTGGGTTCTAACCTGTTGCCT (site TGGTTCGCTAG)”, the “recombinant barcode read abundance (log10)” value was determined as 0.24.
For the sequence “TGGTGCCCTTGGGTTCTAACCTGTTGCGG (site TGCTTCCCTCC)”, the “recombinant barcode read abundance (log10)” value is 0.109.
The same measure for “TGGTGCCCTTGGGTTCTAACCTGTTGCGG (site TGGTGCCCTCC)”: 1.45; for “TGGTGTACTTGGGTTCTAACCTGTTGCCT (site TGGAGTACTAG)”: 0.0346; for “TGGTGTACTTGGGTTCTAACCTGTTGCCT (site TGGCGTACTAG)”: 0.426.
To “TGGTGTACTTGGGTTCTAACCTGTTGCCT (site TGGGGTACTAG)” belongs 0.143.
Regarding “TGGTGTACTTGGGTTCTAACCTGTTGCCT (site TGGTGTACTAG)”, the “recombinant barcode read abundance (log10)” value came out at 0.461.
As for “TGTAAGACTTGGGTTCTAACCTGTTGCAG (site GAACGCTCTAA)”, the “recombinant barcode read abundance (log10)” value was 0.0634.
To “TGTAAGACTTGGGTTCTAACCTGTTGCAG (site TGTAAGACTCT)” belongs 0.644; to “TGTAAGACTTGGGTTCTAACCTGTTGCTG (site TGTAAGACTCA)”, 0.505.
Consider “TGTAAGACTTGGGTTCTAACCTGTTGCTG (site TGTAAGGCTAA)”, for which the “recombinant barcode read abundance (log10)” value was 0.015.
Turning to “TGTAGAGCTTGGGTTCTAACCTGTTGCCG (site TGTAGAGCTCG)”, the “recombinant barcode read abundance (log10)” value worked out at 0.243.
“TGTAGAGCTTGGGTTCTAACCTGTTGCCG (site TGTCGAGCTCG)”: the “recombinant barcode read abundance (log10)” value came to 0.483.
Consider “TGTAGAGCTTGGGTTCTAACCTGTTGCCG (site TGTGGAGCTCG)”, for which the “recombinant barcode read abundance (log10)” value came to 0.
“TGTAGAGCTTGGGTTCTAACCTGTTGCCG (site TGTTGAGCTCG)”: the “recombinant barcode read abundance (log10)” value amounted to 0.258.
To “TGTAGATCTTGGGTTCTAACCTGTTGCAT (site TGTAGATCTAT)” belongs 0.152.
To “TGTAGATCTTGGGTTCTAACCTGTTGCAT (site TGTTGACCTAT)” belongs 0.15; to “TGTAGTCCTTGGGTTCTAACCTGTTGCTT (site TGTAGTCCTAA)”, 0.0506.
Turning to “TGTAGTCCTTGGGTTCTAACCTGTTGCTT (site TGTAGTCCTAC)”, the “recombinant barcode read abundance (log10)” value stood at 0.264.
As to “TGTAGTCCTTGGGTTCTAACCTGTTGCTT (site TGTAGTCCTAG)”, the “recombinant barcode read abundance (log10)” value was determined as 0.187.
To “TGTAGTCCTTGGGTTCTAACCTGTTGCTT (site TGTAGTCCTAT)” belongs 0.0117.
With “TGTATAGCTTGGGTTCTAACCTGTTGCTA (site GGTTTAGCTTA)”, the “recombinant barcode read abundance (log10)” value came to 0.00884.
The same measure for “TGTATAGCTTGGGTTCTAACCTGTTGCTA (site TGTATAGCTTA)”: 0.0299; for “TGTCAACCTTGGGTTCTAACCTGTTGCCT (site TGTCAAACTAG)”: 0.346.
The same measure for “TGTCAACCTTGGGTTCTAACCTGTTGCCT (site TGTCAACCTAG)”: 0.998; for “TGTCAACCTTGGGTTCTAACCTGTTGCCT (site TGTCAAGCTAG)”: 0.12.
To “TGTCAACCTTGGGTTCTAACCTGTTGCCT (site TGTCAATCTAG)” belongs 0; to “TGTCATGCTTGGGTTCTAACCTGTTGCGT (site CTCACACCTCT)”, 0.238.
Turning to “TGTCATGCTTGGGTTCTAACCTGTTGCGT (site TGTCATGCTAC)”, the “recombinant barcode read abundance (log10)” value amounted to 0.163.
The same measure for “TGTCCTGCTTGGGTTCTAACCTGTTGCCT (site AGTCCTGCTAG)”: 0; for “TGTCCTGCTTGGGTTCTAACCTGTTGCCT (site CGTCCTGCTAG)”: 0.167; for “TGTCCTGCTTGGGTTCTAACCTGTTGCCT (site GGTCCTGCTAG)”: 0.11.
For “TGTCCTGCTTGGGTTCTAACCTGTTGCCT (site TGTCCTGCTAG)”, the “recombinant barcode read abundance (log10)” value was found to be 0.36.
To “TGTCGATCTTGGGTTCTAACCTGTTGCCT (site TGTCAATCTAC)” belongs 0.0889.
Consider “TGTCGATCTTGGGTTCTAACCTGTTGCCT (site TGTCGATCTAG)”, for which the “recombinant barcode read abundance (log10)” value turned out to be 0.94.
With “TGTCTAGCTTGGGTTCTAACCTGTTGCGG (site CCAAATCCTAT)”, the “recombinant barcode read abundance (log10)” value was 0.208.
As for “TGTCTAGCTTGGGTTCTAACCTGTTGCGG (site TGTCTAGCTCC)”, the “recombinant barcode read abundance (log10)” value stood at 0.695.
With “TGTCTATCTTGGGTTCTAACCTGTTGCCT (site TGTCTACCTAG)”, the “recombinant barcode read abundance (log10)” value came out at 0.123.
To “TGTCTATCTTGGGTTCTAACCTGTTGCCT (site TGTCTATCTAG)” belongs 0.429; to “TGTCTGGCTTGGGTTCTAACCTGTTGCCT (site AGTCTGGCTAG)”, 0.215.
The same measure for “TGTCTGGCTTGGGTTCTAACCTGTTGCCT (site TGTCTGGCTAG)”: 0.0185; for “TGTCTGTCTTGGGTTCTAACCTGTTGCTA (site TGTCTGTCTAA)”: 0.0174; for “TGTCTGTCTTGGGTTCTAACCTGTTGCTA (site TGTCTGTCTTA)”: 0.0943.
The same measure for “TGTGAGTCTTGGGTTCTAACCTGTTGCGT (site TGTGAGTCTAA)”: 0.347; for “TGTGAGTCTTGGGTTCTAACCTGTTGCGT (site TGTGAGTCTAC)”: 2.55; for “TGTGAGTCTTGGGTTCTAACCTGTTGCGT (site TGTGAGTCTAG)”: 0.27.
“TGTGAGTCTTGGGTTCTAACCTGTTGCGT (site TGTGAGTCTAT)”: the “recombinant barcode read abundance (log10)” value is 1.42.
As to “TGTGCGGCTTGGGTTCTAACCTGTTGCCT (site AGTGCGGCTAG)”, the “recombinant barcode read abundance (log10)” value came to 0.0331.
To “TGTGCGGCTTGGGTTCTAACCTGTTGCCT (site CGTGCGGCTAG)” belongs 0.00936.
To “TGTGCGGCTTGGGTTCTAACCTGTTGCCT (site GGTGCGGCTAG)” belongs 0.535; to “TGTGCGGCTTGGGTTCTAACCTGTTGCCT (site TGTGCGGCTAG)”, 0.152; to “TGTTCCTCTTGGGTTCTAACCTGTTGCCT (site TGTACCTCTAG)”, 0.143.
The same measure for “TGTTCCTCTTGGGTTCTAACCTGTTGCCT (site TGTCCCTCTAG)”: 0.142; for “TGTTCCTCTTGGGTTCTAACCTGTTGCCT (site TGTGCCTCTAG)”: 0.114; for “TGTTCCTCTTGGGTTCTAACCTGTTGCCT (site TGTTCCTCTAG)”: 0.106.
As for “TGTTCTACTTGGGTTCTAACCTGTTGCCG (site TGCTCTACTCA)”, the “recombinant barcode read abundance (log10)” value was determined as 0.052.
“TGTTCTACTTGGGTTCTAACCTGTTGCCG (site TGTTCTACTCG)”: the “recombinant barcode read abundance (log10)” value was found to be 0.0964.
Take “TGTTCTCCTTGGGTTCTAACCTGTTGCCT (site AGTTCTCCTAG)”: the “recombinant barcode read abundance (log10)” value amounted to 0.0134.
Take “TGTTCTCCTTGGGTTCTAACCTGTTGCCT (site CGTTCTCCTAG)”: the “recombinant barcode read abundance (log10)” value is 0.0608.
For the sequence “TGTTCTCCTTGGGTTCTAACCTGTTGCCT (site GGTTCTCCTAG)”, the “recombinant barcode read abundance (log10)” value was found to be 0.064.
Regarding “TGTTCTCCTTGGGTTCTAACCTGTTGCCT (site TGTTCTCCTAG)”, the “recombinant barcode read abundance (log10)” value was 0.
The same measure for “TGTTGACCTTGGGTTCTAACCTGTTGCAT (site TGTAGATCTAT)”: 0.0346.
In the case of “TGTTGACCTTGGGTTCTAACCTGTTGCAT (site TGTTGACCTAT)”, the “recombinant barcode read abundance (log10)” value was determined as 0.329.
The same measure for “TTACATGCTTGGGTTCTAACCTGTTGCCT (site AAGATCACTCC)”: 0.281.
To “TTACATGCTTGGGTTCTAACCTGTTGCCT (site TTACATGCTAG)” belongs 1.27; to “TTAGAGGCTTGGGTTCTAACCTGTTGCCT (site TTAGAGACTAG)”, 0.363.
To “TTAGAGGCTTGGGTTCTAACCTGTTGCCT (site TTAGAGCCTAG)” belongs 0; to “TTAGAGGCTTGGGTTCTAACCTGTTGCCT (site TTAGAGGCTAG)”, 1.13.
Consider “TTAGAGGCTTGGGTTCTAACCTGTTGCCT (site TTAGAGTCTAG)”, for which the “recombinant barcode read abundance (log10)” value was found to be 0.0154.
For “TTAGCATCTTGGGTTCTAACCTGTTGCCT (site TTAGCATCTAG)”, the “recombinant barcode read abundance (log10)” value amounted to 0.589.
The same measure for “TTAGCATCTTGGGTTCTAACCTGTTGCCT (site TTAGCCTCTAG)”: 0.412; for “TTAGCATCTTGGGTTCTAACCTGTTGCCT (site TTAGCGTCTAG)”: 0.161.
The same measure for “TTAGCATCTTGGGTTCTAACCTGTTGCCT (site TTAGCTTCTAG)”: 0.0531.
The same measure for “TTAGGGTCTTGGGTTCTAACCTGTTGCCT (site TTAGGGACTAG)”: 0.252.
For “TTAGGGTCTTGGGTTCTAACCTGTTGCCT (site TTAGGGCCTAG)”, the “recombinant barcode read abundance (log10)” value was determined as 1.17.
With “TTAGGGTCTTGGGTTCTAACCTGTTGCCT (site TTAGGGGCTAG)”, the “recombinant barcode read abundance (log10)” value amounted to 0.0984.
For “TTAGGGTCTTGGGTTCTAACCTGTTGCCT (site TTAGGGTCTAG)”, the “recombinant barcode read abundance (log10)” value is 2.15.
